Laboratory results from patent US20070185161A1, “Bicyclic substituted indole-derivative steroid hormone nuclear receptor modulators” (priority 2004, published 2007).

Molecular target: T1, human GR (glucocorticoid receptor) (Homo sapiens, UniProt P04150)
T1 construct: expressed in transfected cells; host or cells: 293 cells
T1 sequence (P04150 1-777): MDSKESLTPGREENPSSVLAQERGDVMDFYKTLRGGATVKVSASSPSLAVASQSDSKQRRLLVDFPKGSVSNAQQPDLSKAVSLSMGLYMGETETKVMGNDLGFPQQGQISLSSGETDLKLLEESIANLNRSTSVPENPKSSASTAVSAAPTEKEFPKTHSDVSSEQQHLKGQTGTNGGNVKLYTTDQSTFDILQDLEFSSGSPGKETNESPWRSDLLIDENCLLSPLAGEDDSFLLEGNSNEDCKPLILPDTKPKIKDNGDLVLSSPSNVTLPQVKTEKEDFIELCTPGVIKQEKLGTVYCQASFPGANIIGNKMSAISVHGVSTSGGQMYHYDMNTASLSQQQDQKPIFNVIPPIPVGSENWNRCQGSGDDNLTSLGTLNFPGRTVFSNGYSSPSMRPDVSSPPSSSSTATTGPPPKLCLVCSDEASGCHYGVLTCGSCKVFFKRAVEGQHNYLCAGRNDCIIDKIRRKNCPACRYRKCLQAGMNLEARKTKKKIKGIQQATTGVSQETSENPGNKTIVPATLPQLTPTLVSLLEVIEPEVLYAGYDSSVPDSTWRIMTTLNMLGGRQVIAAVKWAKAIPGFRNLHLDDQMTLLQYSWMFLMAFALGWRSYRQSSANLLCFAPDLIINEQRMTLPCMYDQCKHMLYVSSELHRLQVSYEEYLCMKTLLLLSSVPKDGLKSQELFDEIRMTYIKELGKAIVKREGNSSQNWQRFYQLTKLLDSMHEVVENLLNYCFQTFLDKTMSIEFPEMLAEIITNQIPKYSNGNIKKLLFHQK
Assay: Alternative Binding Assay Protocol (Method 2), GR
Conditions: 3H-dexamethasone, 293-GR lysate, racemic mixture unless otherwise indicated
Experimental: Cell lysates from 293 cells overexpressing human GR (glucocorticoid receptor), AR (androgen receptor), MR (mineralocorticoid receptor) or PR (progesterone receptor) are used for competition binding assays to determine Ki values for test compounds. Briefly, competition binding assays are run in a buffer containing 20 mM Hepes, pH 7.6, 0.2 mM EDTA, 75 mM NaCl, 1.5 mM MgCl2, 20% glycerol, 20 mM sodium molybdate, 0.2 mM DTT, 20 ug/ml aprotinin and 20 ug/ml leupeptin, using either 0.3 nM ^3H-dexamethasone for GR binding, 0.36 nM ^3H-methyltrienolone for AR binding, 0.25 nM ^3H-aldosterone for MR binding, or 0.29 nM ^3H-methyltrienolone for PR binding, and either 20 ug 293-GR lysate, 22 ug 293-AR lysate, 20 ug 293-MR lysate or 40 ug 293-PR lysate per well. Competing compounds are added at various concentraions in half-log increments. Non-specific binding is determined in the presence of 500 nM dexamethasone for GR binding, 500 nM aldosterone for MR binding, or 500 nM methyltrienolone for AR and PR binding,. The binding reaction (140 μl) is incubated for overnight at […], then 70 μl of cold charcoal-dextran buffer (containing per 50 ml of assay buffer, 0.75 g of charcoal and 0.25 g of dextran) is added to each reaction. Plates are mixed 8 minutes on an orbital shaker at 4° C. Plates are then centrifuged at 3,000 rpm at 4° C. for 10 minutes. An aliquot of 120 μl of the mix is transferred to another 96-well plate and 175 μl of Wallac Optiphase “Hisafe 3” scintillation fluid is added to each well. Plates are sealed and shaken vigorously on an orbital shaker. After an incubation of 2 hrs, plates are read in a Wallac Microbeta counter. The data is used to calculate an IC50 and % Inhibition at 10 μM. The Kd for ^3H-dexamethasone for GR binding, ^3H-methyltrienolone for AR binding, ^3H-aldosterone for MR binding, or ^3H-methyltrienolone for PR binding, is determined by saturation binding. The IC50 values for compounds are converted to Ki using Cheng-Prusoff equation and the Kd determined by saturation binding assay.

Row | Ki [nM] | SMILES
1 | ≤ 500 | CCC1(c2c[nH]c3c(NS(C)(=O)=O)cccc23)CCOc2cc(F)cc(F)c21 (single isomer, unassigned) [Example 36B, N-[3-(4-Ethyl-5,7-difluoro-chroman-4-yl)-1H-indol-7-yl]-methanesulfonamide]
2 | ≤ 500 | CS(=O)(=O)Nc1cccc2c(C3(CCCO)CCc4cc(F)ccc43)c[nH]c12 (single isomer, unassigned) [Example 40B, N-{3-[5-Fluoro-1-(3-hydroxy-propyl)-indan-1-yl]-1H-indol-7-yl}-methanesulfonamide]
3 | ≤ 500 | CCC1(c2c[nH]c3c(NS(=O)(=O)CC)cccc23)CCc2cc(F)ccc21 (centres unmarked) [Example 19, Ethanesulfonic acid [3-(1-ethyl-5-fluoro-indan-1-yl)-1H-indol-7-yl]-amide]
4 | ≤ 500 | CS(=O)(=O)Nc1cccc2c(C3(CCCO)CCc4cc(F)ccc43)c[nH]c12 (racemic) [Example 40, N-{3-[5-Fluoro-1-(3-hydroxy-propyl)-indan-1-yl]-1H-indol-7-yl}-methanesulfonamide]
5 | ≤ 500 | CC1(c2c[nH]c3c(NS(C)(=O)=O)cccc23)CCOc2cc(F)ccc21 (single isomer, unassigned) [Example 34B, N-[3-(7-Fluoro-4-methyl-chroman-4-yl)-1H-indol-7-yl]-methanesulfonamide]
6 | ≤ 500 | CCC1(c2c[nH]c3c(NS(C)(=O)=O)cccc23)CCOc2cc(F)ccc21 (single isomer, unassigned) [Example 35B, N-[3-(4-Ethyl-7-fluoro-chroman-4-yl)-1H-indol-7-yl]-methanesulfonamide]
7 | ≤ 500 | CCC1(c2c[nH]c3c(NS(=O)(=O)N(C)C)cccc23)CCc2cc(F)ccc21 (centres unmarked) [Example 17]
8 | ≤ 500 | CC1(c2c[nH]c3c(NS(C)(=O)=O)cccc23)CCc2cc(F)cc(F)c21 (single isomer, unassigned) [Example 22B, N-[3-(5,7-Difluoro-1-methyl-indan-1-yl)-1H-indol-7-yl]-methanesulfonamide]
9 | ≤ 500 | CCC1(c2c[nH]c3c(NS(C)(=O)=O)cccc23)CCOc2cc(F)cc(F)c21 (racemic) [Example 36, N-[3-(4-Ethyl-5,7-difluoro-chroman-4-yl)-1H-indol-7-yl]-methanesulfonamide]
10 | ≤ 500 | CS(=O)(=O)Nc1cccc2c(C3(C4CC4)CCc4cc(F)ccc43)c[nH]c12 (racemic) [Example 39, N-[3-(1-Cyclopropyl-5-fluoro-indan-1-yl)-1H-indol-7-yl]-methanesulfonamide]
11 | ≤ 500 | CCC1(c2c[nH]c3c([N+](=O)[O-])cccc23)CCc2cc(F)ccc21 (centres unmarked) [Example 2, 3-(1-Ethyl-5-fluoro-indan-1-yl)-7-nitro-1H-indole]
12 | ≤ 500 | CCC1(c2c[nH]c3c(NC(C)=O)cccc23)CCc2cc(F)ccc21 (centres unmarked) [Example 16, N-[3-(1-ethyl-5-fluoro-indan-1-yl)-1H-indol-7-yl]-acetamide]
13 | ≤ 500 | CC1(c2c[nH]c3c(NS(C)(=O)=O)cccc23)CCc2cc(F)cc(F)c21 (single isomer, unassigned) [Example 22A, N-[3-(5,7-Difluoro-1-methyl-indan-1-yl)-1H-indol-7-yl]-methanesulfonamide]
14 | ≤ 500 | CCC1(c2c[nH]c3c(NS(=O)(=O)c4ccccc4)cccc23)CCc2cc(F)ccc21 (centres unmarked) [Example 18, N-[3-(1-ethyl-5-fluoro-indan-1-yl)-1H-indol-7-yl]-benzenesulfonamide]
15 | ≤ 500 | CCC1(c2cn(C)c3c(NS(C)(=O)=O)cccc23)CCc2cc(F)ccc21 (centres unmarked) [Example 5, N-[3-(1-Ethyl-5-fluoro-indan-1-yl)-1-methyl-1H-indol-7-yl]-methanesulfonamide]
16 | ≤ 500 | CCC1(c2c[nH]c3c(NS(C)(=O)=O)cccc23)CCOc2cc(F)ccc21 (racemic) [Example 35, N-[3-(4-Ethyl-7-fluoro-chroman-4-yl)-1H-indol-7-yl]-methanesulfonamide]
17 | ≤ 500 | CS(=O)(=O)Nc1cccc2c(C3(CCCN4CCOCC4)CCc4cc(F)ccc43)c[nH]c12 (centres unmarked) [Example 44, N-{3-[5-Fluoro-1-(3-morpholin-4-yl-propyl)-indan-1-yl]-1H-indol-7-yl}-methanesulfonamide]
18 | ≤ 500 | CC1(c2c[nH]c3c(NS(C)(=O)=O)cccc23)CCOc2cc(F)ccc21 (racemic) [Example 34, N-[3-(7-Fluoro-4-methyl-chroman-4-yl)-1H-indol-7-yl]-methanesulfonamide]
19 | ≤ 500 | CCC1(c2c[nH]c3c(NS(C)(=O)=O)cccc23)CCOc2cc(F)ccc21 (single isomer, unassigned) [Example 35A, N-[3-(4-Ethyl-7-fluoro-chroman-4-yl)-1H-indol-7-yl]-methanesulfonamide]
20 | ≤ 500 | CCC1(c2c[nH]c3c(NC(=O)OC)cccc23)CCc2cc(F)ccc21 (centres unmarked) [Example 15, [3-(1-Ethyl-5-fluoro-indan-1-yl)-1H-indol-7-yl]-carbamic acid methyl ester]
21 | ≤ 500 | CNCCCC1(c2c[nH]c3c(NS(C)(=O)=O)cccc23)CCc2cc(F)ccc21 (centres unmarked) [Example 42, N-{3-[5-Fluoro-1-(3-methylamino-propyl)-indan-1-yl]-1H-indol-7-yl}-methanesulfonamide]
22 | ≤ 500 | CCC1(c2c[nH]c3c(NS(C)(=O)=O)cccc23)CCOc2cc(F)cc(F)c21 (single isomer, unassigned) [Example 36A, N-[3-(4-Ethyl-5,7-difluoro-chroman-4-yl)-1H-indol-7-yl]-methanesulfonamide]
23 | ≤ 1000 | CCC1(c2c[nH]c3c(N)cccc23)CCc2cc(F)ccc21 (centres unmarked) [Example 14, 3-(1-Ethyl-5-fluoro-indan-1-yl)-1H-indol-7-ylamine]
24 | ≤ 500 | CS(=O)(=O)Nc1cccc2c(C3(CCCI)CCc4cc(F)ccc43)c[nH]c12 (centres unmarked) [Example 41, N-{3-[5-Fluoro-1-(3-iodo-propyl)-indan-1-yl]-1H-indol-7-yl}-methanesulfonamide]
25 | ≤ 500 | CC1(c2c[nH]c3c(NS(C)(=O)=O)cccc23)CCOc2cc(F)ccc21 (single isomer, unassigned) [Example 34A, N-[3-(7-Fluoro-4-methyl-chroman-4-yl)-1H-indol-7-yl]-methanesulfonamide]
26 | ≤ 500 | CS(=O)(=O)Nc1cccc2c(C3(C4CC4)CCc4cc(F)ccc43)c[nH]c12 (single isomer, unassigned) [Example 39A, N-[3-(1-Cyclopropyl-5-fluoro-indan-1-yl)-1H-indol-7-yl]-methanesulfonamide]
27 | ≤ 500 | CC1(c2c[nH]c3c(NS(C)(=O)=O)cccc23)CCc2cc(F)cc(F)c21 (racemic) [Example 22, N-[3-(5,7-Difluoro-1-methyl-indan-1-yl)-1H-indol-7-yl]-methanesulfonamide]
28 | ≤ 500 | CS(=O)(=O)Nc1cccc2c(C3(C4CC4)CCc4cc(F)ccc43)c[nH]c12 (single isomer, unassigned) [Example 39B, N-[3-(1-Cyclopropyl-5-fluoro-indan-1-yl)-1H-indol-7-yl]-methanesulfonamide]
29 | ≤ 500 | CS(=O)(=O)Nc1cccc2c(C3(CCCO)CCc4cc(F)ccc43)c[nH]c12 (single isomer, unassigned) [Example 40A, N-{3-[5-Fluoro-1-(3-hydroxy-propyl)-indan-1-yl]-1H-indol-7-yl}-methanesulfonamide]
